Laboratory results from US10000471B2, “Pyrazole P38 map kinase inhibitors” (Respivert Limited, priority 2010, dated 2018).

What was measured:
[1] = molecular target: T1, p38 MAPKα isoform (MAPK14) (Homo sapiens, UniProt Q16539); experiment: Enzyme inhibition assay (FRET, Z-LYTE), p38 MAPKα via MAPKAP-K2 activation; format: biochemical; conditions: read-out: Enzyme Inhibition IC50 p38α
T1 construct: purchased Invitrogen
In short: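 Z-LYTE FRET format, in which protease cleaves only non-phosphorylated peptide, read after 1 h development. Compound was mixed with p38 MAPKα for 2 h at RT, and inhibition was gauged from MAPKAP-K2 activation/phosphorylation rather than directly. Percent inhibition against an uninhibited control was fitted to give IC50.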

Balb/c mice = experiment: LPS-induced neutrophil accumulation in mice; format: in vivo; conditions: for Neutrophil numbers in BAL / Neutrophil numbers in BAL (% inhibition): intra tracheal
Protocol: LPS-Induced Neutrophil Accumulation in Mice
Non-fasted Balb/c mice were dosed by the intra tracheal route with either vehicle, or the test substance at the indicated times (within the range 2-8 hr) before stimulation of the inflammatory response by application of an LPS challenge. At T=0, mice were placed into an exposure chamber and exposed to LPS. After a further 8 hr the animals were anesthetized, their tracheas cannulated and BALF extracted by infusing and then withdrawing from their lungs 1.0 mL of PBS via the tracheal catheter. Total and differential white cell counts in the BALF samples were measured using a Neubaur haemocytometer. Cytospin smears of the BALF samples were prepared by centrifugation at 200 rpm for 5 min at RT and stained using a DiffQuik stain system (Dade Behring). Cells were counted using oil immersion microscopy.

A/J mice = experiment: Cigarette smoke model; format: in vivo; conditions: for Cell numbers in BAL (% Inhibition), Macrophages / Cell numbers in BAL (% Inhibition), Neutrophils / Cell numbers in BAL, Macrophages / Cell numbers in BAL, Neutrophils: Table 8; for inhibition of both macrophage and neutrophil accumulation into the BALF: animals previously exposed to cigarette smoke
Protocol: A/J mice (males, 5 weeks old) were exposed to cigarette smoke (4% cigarette smoke, diluted with air) for 30 min/day for 11 days using a Tobacco Smoke Inhalation Experiment System for small animals (Model SIS-CS; Sibata Scientific Technology, Tokyo, Japan). Test substances were administered intra-nasally (35 μL of solution in 50% DMSO/PBS) twice daily for 3 days after the final cigarette smoke exposure. At 12 hr after the last dosing, each of the animals was anesthetized, the trachea cannulated and bronchoalveolar lavage fluid (BALF) was collected. The numbers of alveolar macrophages and neutrophils were determined by FACS analysis (EPICS® ALTRA II, Beckman Coulter, Inc., Fullerton, Calif., USA) using anti-mouse MOMA2 antibody (macrophage) or anti-mouse 7/4 antibody (neutrophil).
The data for cell numbers are shown as the mean±SEM.

p38 MAPKγ (MAPK12) = molecular target: T2, p38 MAPKγ (MAPK12) (Homo sapiens, UniProt P53778); experiment: Enzyme inhibition assay (FRET, Z-LYTE), p38 MAPKγ; format: biochemical; conditions: read-out: Enzyme Inhibition IC50 p38γ
T2 construct: purchased Invitrogen
T2 sequence (P53778 1-367): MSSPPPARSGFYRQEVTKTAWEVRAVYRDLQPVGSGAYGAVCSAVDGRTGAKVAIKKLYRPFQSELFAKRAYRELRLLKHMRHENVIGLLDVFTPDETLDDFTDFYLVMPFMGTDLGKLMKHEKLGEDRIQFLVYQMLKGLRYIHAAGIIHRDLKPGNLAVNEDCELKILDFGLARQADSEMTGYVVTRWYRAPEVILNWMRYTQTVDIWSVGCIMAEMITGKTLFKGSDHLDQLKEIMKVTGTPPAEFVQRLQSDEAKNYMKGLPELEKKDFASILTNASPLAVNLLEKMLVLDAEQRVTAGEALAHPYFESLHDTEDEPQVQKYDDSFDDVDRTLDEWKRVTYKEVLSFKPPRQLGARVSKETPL
In short: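 Z-LYTE FRET readout: after 1 h kinase reaction (ATP 100 μM, peptide 2 μM) following 2 h RT enzyme–compound preincubation in HEPES, protease cleaves only unphosphorylated peptide. Percent inhibition from donor/acceptor ratio relative to control; IC50 fitted from the curve.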

[2] = test system: ICAM-1 induction in BEAS2B cells; experiment: Poly I:C-induced ICAM-1 induction in BEAS2B cells; format: cell-based, human; conditions: Homo sapiens, BEAS-2B, read-out: PolyIC/ICAM1 IC50 BEAS2B
In short: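 IC50 reflects inhibition of cell-surface ICAM-1 relative to vehicle, read by ELISA (OD450 against 655 nm) and divided by crystal violet OD595 for cell number. Readings were taken 18 hr after transfection of 1 μg/mL poly I:C into BEAS2B cells. Compound was added 2 hr before stimulation.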

[3] = Table 6, 0.2 mg/mL, 8 h pre-dose
[4] = Cigarette smoke + 0.064 μg/mL, intra-nasal twice daily 3 days
[5] = Table 7, Cigarette smoke + 8.0 μg/mL
[6] = Table 7, Cigarette smoke + 40 μg/mL
[7] = Table 7, Cigarette smoke + 200 μg/mL

T1 sequence (Q16539 whole entry, canonical isoform): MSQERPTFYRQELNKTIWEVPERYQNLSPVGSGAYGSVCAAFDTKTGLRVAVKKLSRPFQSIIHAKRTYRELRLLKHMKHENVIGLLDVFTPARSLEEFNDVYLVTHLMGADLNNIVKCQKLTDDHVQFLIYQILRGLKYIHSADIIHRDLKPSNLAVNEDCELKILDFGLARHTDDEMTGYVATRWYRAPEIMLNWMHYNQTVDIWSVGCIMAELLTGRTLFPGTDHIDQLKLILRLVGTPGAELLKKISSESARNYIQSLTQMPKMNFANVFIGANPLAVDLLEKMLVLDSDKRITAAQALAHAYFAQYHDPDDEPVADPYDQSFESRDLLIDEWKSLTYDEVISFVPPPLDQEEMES

With `COc1ccc(-n2nc(C(C)(C)C)cc2NC(=O)Nc2ccc(Oc3ccnc(NC(=O)N4CCCC4)c3)c(Cl)c2Cl)cc1` [Example 76, N-(4-(4-(3-(3-(tert-butyl)-1-(4-methoxyphenyl)-1H-pyrazol-5-yl)ureido)-2,3-dichlorophenoxy)pyridin-2-yl)pyrrolidine-1-carboxamide] the IC50 [1] was 21 nM, the “% inhibition of Influx” value (Balb/c mice; [3]) was 8% and the “Neutrophil numbers in BAL 8 h pre-dose” value (Balb/c mice; [3]) was 12.94 ± 2.41 × 10^5/mL. The “inhibitory effects versus neutrophil influx into the BALF” value (Balb/c mice; dosed 8 hr before the inflammatory stimulus) was “inhibitory effects”, the “Cell numbers in BAL (% Inhibition), Macrophages” value (A/J mice; Cigarette smoke + 8.0 μg/mL) was 57% and the “Cell numbers in BAL (% Inhibition), Neutrophils” value (A/J mice; Cigarette smoke + 8.0 μg/mL) was 52%. For the same compound, the “Cell numbers in BAL, Macrophages” value (A/J mice; Cigarette smoke + 8.0 μg/mL) was 8.5 ± 0.35 × 10^4/mL, the “Cell numbers in BAL, Neutrophils” value (A/J mice; Cigarette smoke + 8.0 μg/mL) was 9.6 ± 0.48 × 10^4/mL and the “Cell numbers in BAL (% Inhibition), Macrophages” value (A/J mice; Cigarette smoke + 40 μg/mL) was 84%. The “Cell numbers in BAL (% Inhibition), Neutrophils” value (A/J mice; Cigarette smoke + 40 μg/mL) was 66%, the “Cell numbers in BAL, Macrophages” value (A/J mice; Cigarette smoke + 40 μg/mL) was 5.3 ± 0.36 × 10^4/mL and the “Cell numbers in BAL, Neutrophils” value (A/J mice; Cigarette smoke + 40 μg/mL) was 7.4 ± 0.76 × 10^4/mL. For the same compound, the “Cell numbers in BAL (% Inhibition), Macrophages” value (A/J mice; Cigarette smoke + 200 μg/mL) was 97%, the “Cell numbers in BAL (% Inhibition), Neutrophils” value (A/J mice; Cigarette smoke + 200 μg/mL) was 86% and the “Cell numbers in BAL, Macrophages” value (A/J mice; Cigarette smoke + 200 μg/mL) was 3.6 ± 0.39 × 10^4/mL. For the same compound, the “Cell numbers in BAL, Neutrophils” value (A/J mice; Cigarette smoke + 200 μg/mL) was 4.0 ± 0.49 × 10^4/mL, the “inhibition of both macrophage and neutrophil accumulation into the BALF” value (A/J mice) was “dose-dependent inhibition” and the IC50 (p38 MAPKγ (MAPK12)) was 134 nM. The IC50 [2] was 0.3 nM.

`CNC(=O)Nc1cc(Oc2ccc(NC(=O)Nc3cc(C(C)(C)C)nn3-c3ccc(OC)cc3)c(Cl)c2Cl)ccn1` [Example 9, N-Methyl-N′-4-(4-(3-(3-tert-butyl-1-p-anisyl-1H-pyrazol-5-yl)ureido)-2,3-dichlorophen-1-yloxy)pyridin-2-ylurea] was tested, and the IC50 [1] was 19.1 nM, the “Neutrophil numbers in BAL” value (Balb/c mice; 0.05 mg/mL, 2 hr pre-dose) was 14.98 ± 2.25 × 10^5/mL and the “Neutrophil numbers in BAL (% inhibition)” value (Balb/c mice; 0.05 mg/mL, 2 hr pre-dose) was 11%. For the same compound, the “Neutrophil numbers in BAL” value (Balb/c mice; 0.2 mg/mL, 2 hr pre-dose) was 8.75 ± 1.38 × 10^5/mL, the “Neutrophil numbers in BAL (% inhibition)” value (Balb/c mice; 0.2 mg/mL, 2 hr pre-dose) was 48% and the “Neutrophil numbers in BAL” value (Balb/c mice; 0.2 mg/mL, 8 h pre-dose) was 13.44 ± 2.03 × 10^5/mL. For the same compound, the “Neutrophil numbers in BAL (% inhibition)” value (Balb/c mice; 0.2 mg/mL, 8 h pre-dose) was 20%, the “Neutrophil numbers in BAL” value (Balb/c mice; 1.0 mg/mL, 2 hr pre-dose) was 5.80 ± 1.18 × 10^5/mL and the “Neutrophil numbers in BAL (% inhibition)” value (Balb/c mice; 1.0 mg/mL, 2 hr pre-dose) was 66%. For the same compound, the “inhibition of neutrophil accumulation into the BALF” value (Balb/c mice; administered 2 hr prior to LPS challenge) was “dose-dependent inhibition”, the “effects of treatment on neutrophil accumulation into the BALF” value (Balb/c mice; dosed 8 hr prior to the endotoxin challenge) was “sustained and still detectable” and the “Cell numbers in BAL (% Inhibition), Macrophage” value (A/J mice; [4]) was 19%. The “Cell numbers in BAL (% Inhibition), Neutrophil” value (A/J mice; [4]) was 3%, the “Cell numbers in BAL, Macrophage” value (A/J mice; [4]) was 16.2 ± 1.7 × 10^4/mL and the “Cell numbers in BAL, Neutrophil” value (A/J mice; [4]) was 17.7 ± 2.5 × 10^4/mL. For the same compound, the “Cell numbers in BAL (% Inhibition), Macrophage” value (A/J mice; Cigarette smoke + 0.32 μg/mL) was 17%, the “Cell numbers in BAL (% Inhibition), Neutrophil” value (A/J mice; Cigarette smoke + 0.32 μg/mL) was 16% and the “Cell numbers in BAL, Macrophage” value (A/J mice; Cigarette smoke + 0.32 μg/mL) was 16.5 ± 2.4 × 10^4/mL. For the same compound, the “Cell numbers in BAL, Neutrophil” value (A/J mice; Cigarette smoke + 0.32 μg/mL) was 15.5 ± 0.47 × 10^4/mL, the “Cell numbers in BAL (% Inhibition), Macrophage” value (A/J mice; Cigarette smoke + 1.6 μg/mL) was 19% and the “Cell numbers in BAL (% Inhibition), Neutrophil” value (A/J mice; Cigarette smoke + 1.6 μg/mL) was 21%. For the same compound, the “Cell numbers in BAL, Macrophage” value (A/J mice; Cigarette smoke + 1.6 μg/mL) was 16.2 ± 1.3 × 10^4/mL, the “Cell numbers in BAL, Neutrophil” value (A/J mice; Cigarette smoke + 1.6 μg/mL) was 14.7 ± 1.6 × 10^4/mL and the “Cell numbers in BAL (% Inhibition), Macrophage” value (A/J mice; [5]) was 39%. The “Cell numbers in BAL (% Inhibition), Neutrophil” value (A/J mice; [5]) was 29%, the “Cell numbers in BAL, Macrophage” value (A/J mice; [5]) was 13.1 ± 1.2 × 10^4/mL and the “Cell numbers in BAL, Neutrophil” value (A/J mice; [5]) was 13.4 ± 1.4 × 10^4/mL. The “Cell numbers in BAL (% Inhibition), Macrophage” value (A/J mice; [6]) was 61%, the “Cell numbers in BAL (% Inhibition), Neutrophil” value (A/J mice; [6]) was 42% and the “Cell numbers in BAL, Macrophage” value (A/J mice; [6]) was 9.9 ± 1.6 × 10^4/mL. For the same compound, the “Cell numbers in BAL, Neutrophil” value (A/J mice; [6]) was 11.2 ± 2.1 × 10^4/mL, the “Cell numbers in BAL (% Inhibition), Macrophage” value (A/J mice; [7]) was 85% and the “Cell numbers in BAL (% Inhibition), Neutrophil” value (A/J mice; [7]) was 72%. For the same compound, the “Cell numbers in BAL, Macrophage” value (A/J mice; [7]) was 6.1 ± 0.93 × 10^4/mL, the “Cell numbers in BAL, Neutrophil” value (A/J mice; [7]) was 6.3 ± 0.79 × 10^4/mL and the “inhibition of both macrophage and neutrophil accumulation into the BALF” value (A/J mice) was “dose-dependent inhibition”. For the same compound, the IC50 (p38 MAPKγ (MAPK12)) was 67.2 nM and the IC50 [2] was 0.3 nM.
